Laboratory results taken from ChEMBL document CHEMBL4414655, “Position Effect of Fatty Acid Modification on the Cytotoxicity and Antimetastasis Potential of the Cytotoxic Peptide Lycosin-I” (J Med Chem, 2019).
The source made the active and inactive calls. The calls are words filed in the database; no cut-off is given here.

Legend:
[1] = Toxicity in mouse B16/F10 cells implanted BALB/C mouse assessed as effect on body weight at 10 mg/kg, ip dosed every other day for 10 days and measured every 5 days; format: organism-based; conditions: in vivo
A549 [2] = assay: Cytotoxicity in human A549 cells assessed as reduction in cell viability at 0.39 to 25 uM pre-incubated in presence of 10% FBS for 48 hrs and measured after 24 hrs by CCK8 assay; format: functional, cell-based
PC-3 = assay: Cytotoxicity in human PC3 cells assessed as reduction in cell viability incubated for 24 hrs by CCK8 assay; format: functional, cell-based; conditions: PC-3, 24 h
A549 [3] = assay: Induction of apoptosis in human A549 cells assessed as necrotic cells level at 2 uM incubated for 24 hrs by Annexin-V-FITC/PI staining based analysis (reference value: 2.27%); format: functional
B16-F10 [4] = assay: Antitumor activity in mouse B16/F10 cells implanted in BALB/C mouse assessed as inhibition of tumor growth at 10 mg/kg, ip dosed every other day for 10 days and measured every 2 days; format: functional, organism-based
HEK-293T = assay: Cytotoxicity in human HEK293T cells assessed as reduction in cell viability incubated for 24 hrs by CCK8 assay; format: cell-based; conditions: Homo sapiens, HEK-293T
L02 = assay: Cytotoxicity in human L02 cells assessed as reduction in cell viability incubated for 24 hrs by CCK8 assay; format: cell-based; conditions: L02, 24 h
HeLa = assay: Cytotoxicity in human HeLa cells assessed as reduction in cell viability incubated for 24 hrs by CCK8 assay; format: functional, cell-based
[5] = Stability in mouse serum at 100 uM incubated for 24 hrs at 37 degC by MALDI-TOF MS analysis; format: ADME, cell-free
A549 [6] = assay: Induction of apoptosis in human A549 cells assessed as early apoptotic cells level at 2 uM incubated for 24 hrs by Annexin-V-FITC/PI staining based analysis (reference value: 2.27%); format: functional
A549 [7] = assay: Inhibition of colony formation n human A549 cells up to 10 uM incubated for 15 days by crystal violet staining based assay; format: functional, cell-based
B16-F10 [8] = assay: Anti-metastasis activity in mouse B16/F10 cells implanted in BALB/C mouse assessed as inhibition of lung metastatic nodules at 8 mg/kg, ip dosed every other day for 10 days and measured every 2 days by H and E staining based assay; format: functional, organism-based
A549 [9] = assay: Induction of cell membrane disruption in human A549 cells assessed as LDH release at 3.25 uM incubated for 30 mins by fluorescence based assay relative to control
A549 [10] = assay: Anti-migration activity in human A549 cells at 0.5 to 1 uM incubated for 12 hrs by crystal violet staining based transwell migration assay; format: functional, cell-based
SW-620 = assay: Cytotoxicity in human SW620 cells assessed as reduction in cell viability incubated for 24 hrs by CCK8 assay; format: functional, cell-based; conditions: SW-620, 24 h
A549 [11] = assay: Induction of apoptosis in human A549 cells assessed as late apoptotic cells level at 2 uM incubated for 24 hrs by Annexin-V-FITC/PI staining based analysis (reference value: 2.27%); format: functional
A549 [12] = assay: Induction of cell membrane disruption in human A549 cells at 4 uM incubated for 1 hr by AO/EB staining based fluorescence microscopy
MCF7 = assay: Cytotoxicity in human MCF7 cells assessed as reduction in cell viability incubated for 24 hrs by CCK8 assay; format: functional, cell-based; conditions: MCF7, 24 h
A549 [13] = assay: Anti-invasion activity in human A549 cells at 0.5 to 1 uM incubated for 12 hrs by crystal violet staining based Matrigel coated transwell invasion assay; format: functional, cell-based
U-87 MG = assay: Cytotoxicity in human U87 cells assessed as reduction in cell viability incubated for 24 hrs by CCK8 assay; format: functional, cell-based, U-87MG ATCC
A549 [14] = assay: Anti-migration activity in human A549 cells 3D tumor spheroids assessed as reduction in cell migration at 20 uM incubated for 48 hrs by gelatin based 3D spheroid based metastasis assay; format: functional
A549 [15] = assay: Induction of cell membrane disruption in human A549 cells at 4 uM incubated for 24 hrs by scanning electron microscopy; format: cell-based
A549 [16] = assay: Induction of cell membrane disruption in human A549 cells assessed as LDH release at 25 uM incubated for 30 mins by fluorescence based assay relative to control
A549 [17] = assay: Cytotoxicity in human A549 cells assessed as reduction in cell viability incubated for 24 hrs by CCK8 assay; format: functional, cell-based; conditions: A549, 24 h
A549 [18] = assay: Inhibition of spheroids growth in human A549 cells 3D tumor spheroids at 10 to 20 uM treated on day 0 and measured on day 5 by CCK8 assay; format: functional, cell-based

H-KGWFKAMKSIAKFIAKEKLKEHL-OH
Activity [1]: Non-Toxic | Activity (A549 [2]): inactive | IC50 (PC-3): 11 µM | Activity (A549 [3]): 1.97% | TGI (B16-F10 [4]): inactive | IC50 (HEK-293T): 27.9 µM | IC50 (L02): 42.1 µM | IC50 (HeLa): 26.3 µM | Stability [5]: Unstable | Activity (A549 [6]): 0.48% | inhibition (A549 [7]): inactive | inhibition (B16-F10 [8]): inactive | Activity (A549 [9]): 5.1% | Activity (A549 [10]): inactive | IC50 (SW-620): 13.7 µM | Activity (A549 [11]): 3.37% | Activity (A549 [12]): inactive | IC50 (MCF7): 20.1 µM | Activity (A549 [13]): inactive | IC50 (U-87 MG): 19.9 µM | Activity (A549 [14]): Active | Activity (A549 [15]): inactive | Activity (A549 [16]): 37% | IC50 (A549 [17]): 22.9 µM | growth inhibition (GI) (A549 [18]): inactive
